The source of these data is patent publication US9957264B2 (Merck Sharp & Dohme Corp., priority 2013, dated 2018).

Test [1] addresses JAK2 (recombinant purified GST-tagged catalytic domain) (Homo sapiens (Human), UniProt O60674). Kind of test: Jak Biochemical HTRF Assay (JAK2). Particulars: [ATP] 8.5 μM.
For test [2], the target named is JAK1 (recombinant purified GST-tagged catalytic domain) (Homo sapiens (Human), UniProt P23458). Nature of the test: Jak Biochemical HTRF Assay (JAK1). The following applies: [ATP] 31.8 μM. Summed up: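 Phosphorylation of a common biotinylated peptide by each catalytic domain is measured by HTRF. The ATP-started reaction runs 120 min at room temperature before EDTA quench and detection.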
JAK1 (recombinant purified GST-tagged catalytic domain), sequence (P23458 875-1153): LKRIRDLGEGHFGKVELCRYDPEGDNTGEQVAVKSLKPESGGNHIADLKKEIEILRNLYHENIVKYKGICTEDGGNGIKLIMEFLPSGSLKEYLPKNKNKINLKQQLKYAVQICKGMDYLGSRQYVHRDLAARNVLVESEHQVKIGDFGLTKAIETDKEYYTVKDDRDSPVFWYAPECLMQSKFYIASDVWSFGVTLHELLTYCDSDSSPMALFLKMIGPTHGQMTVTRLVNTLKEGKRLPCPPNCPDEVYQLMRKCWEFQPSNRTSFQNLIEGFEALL
For orientation: Time-resolved FRET reads energy transfer from a long-lived donor to a nearby acceptor.

The term IC50 denotes the concentration that gives 50% inhibition.

JAK2 (recombinant purified GST-tagged catalytic domain), sequence (O60674 849-1124): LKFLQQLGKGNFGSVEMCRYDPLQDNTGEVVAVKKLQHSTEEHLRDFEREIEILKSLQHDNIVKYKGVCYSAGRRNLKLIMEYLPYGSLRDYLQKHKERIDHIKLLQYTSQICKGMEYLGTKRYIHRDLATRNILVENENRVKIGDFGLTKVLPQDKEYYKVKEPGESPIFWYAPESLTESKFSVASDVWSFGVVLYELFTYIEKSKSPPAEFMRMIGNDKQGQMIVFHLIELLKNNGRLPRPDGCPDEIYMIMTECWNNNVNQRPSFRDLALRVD

As for `CC(C)(C)OC(=O)CN1Cc2cc(Nc3nn([C@]4(CC#N)CCCOC4)c4cc[nH]c(=O)c34)ccc2S1(=O)=O` [Example 5-185, tert-butyl [5-({1-[(3S)-3-(cyanomethyl)tetrahydro-2H-pyran-3-yl]-4-oxo-4,5-dihydro-1H-pyrazolo[4,3-c]pyridin-3-yl}amino)-1,1-dioxido-1,2-benzisothiazol-2(3H)-yl]acetate], the figures for the IC50 in test [1] and in test [2] were 1.5 nM and 0.08 nM, respectively.
In the same order, the values of `CC(C)(C)OC(=O)N1CCC(CC#N)(n2nc(Nc3ccc(C4(C(F)(F)F)CCN(Cc5ccccc5)C4)cc3)c3c(=O)[nH]ccc32)CC1` (single isomer, unassigned) [Example 5-280, (S or R) tert-butyl 4-(3-((4-(1-benzyl-3-(trifluoromethyl)pyrrolidin-3-yl)phenyl)amino)-4-oxo-4,5-dihydro-1H-pyrazolo[4,3-c]pyridin-1-yl)-4-(cyanomethyl)piperidine-1-carboxylate] are 9.56 nM and 7.33 nM.
For `CC(C)(C)OC(=O)N1CCC(CC#N)(n2nc(Nc3ccc(S(=O)(=O)NCC4CC4)c(F)c3)c3c(=O)[nH]ccc32)CC1` [Example 5-296, tert-butyl 4-(cyanomethyl)-4-(3-((4-(N-(cyclopropylmethyl)sulfamoyl)-3-fluorophenyl)amino)-4-oxo-4,5-dihydro-1H-pyrazolo[4,3-c]pyridin-1-yl)piperidine-1-carboxylate] the same measures were 0.91 nM and 0.65 nM.
Turning to `N#CCC1(n2nc(Nc3ccc4c(c3)COC4=O)c3c(=O)[nH]ccc32)CCCC1` [Example 5-125, 2-(1-(4-oxo-3-((1-oxo-1,3-dihydroisobenzofuran-5-yl)amino)-4,5-dihydro-1H-pyrazolo[4,3-c]pyridin-1-yl)cyclopentyl)acetonitrile], the results for the IC50 in test [1] and in test [2] were 2.71 nM and 0.27 nM, respectively.
Turning to `CN(C)S(=O)(=O)c1ccc(Nc2nn(C3(CC#N)CCN(C(=O)C45CC6C[C@H](C4)C[C@@H](C6)C5)CC3)c3cc[nH]c(=O)c23)cc1` [Example 9-9, 4-[(1-{4-(cyanomethyl)-1-[(3S,5S,7S)-tricyclo[3.3.1.1^3,7]dec-1-ylcarbonyl]piperidin-4-yl}-4-oxo-4,5-dihydro-1H-pyrazolo[4,3-c]pyridin-3-yl)amino]-N,N-dimethylbenzenesulfonamide], the IC50 in test [1] amounted to 38.8 nM; in test [2] it was 3.96 nM.
For `N#CC[C@]1(n2nc(Nc3ccc(Cl)cc3)c3c(=O)[nH]ccc32)CC[C@@H](NCC(F)(F)F)CC1` [Example 18-10, Cis 2-(1-(3-((4-chlorophenyl)amino)-4-oxo-4,5-dihydro-1H-pyrazolo[4,3-c]pyridin-1-yl)-4-((2,2,2-trifluoroethyl)amino)cyclohexyl)acetonitrile] the same measures were 1020 nM and 74 nM.
For the compound `N#CC[C@@]1(n2nc(Nc3cc(F)c4nccc(Cl)c4c3)c3c(=O)[nH]ccc32)CCOC1` (single isomer, unassigned) [Example 5-243, [(3R or 3S)-3-{3-[(4-chloro-8-fluoroquinolin-6-yl)amino]-4-oxo-4,5-dihydro-1H-pyrazolo[4,3-c]pyridin-1-yl}tetrahydrofuran-3-yl]acetonitrile], the IC50 in test [1] is 100 nM; in test [2], 6.62 nM.
With `CC(O)(c1ccc(Nc2nn([C@@]3(CC#N)CCCC[C@H]3F)c3cc[nH]c(=O)c23)cc1)C(F)(F)F` (single isomer, unassigned) [Example 5-85, {(1R,2R)-2-fluoro-1-[4-oxo-3-({4-[(1S or 1R)-2,2,2-trifluoro-1-hydroxy-1-methylethyl]phenyl}amino)-4,5-dihydro-1H-pyrazolo[4,3-c]pyridin-1-yl]cyclohexyl}acetonitrile], the IC50 in test [1] came to 0.17 nM; in test [2], 0.07 nM.
Turning to `N#CC[C@@]1(n2nc(Nc3ccc(C#N)cc3)c3c(=O)[nH]ccc32)CCOC1` (single isomer, unassigned) [Example 5-239, 4-({1-[(3R or 3S)-3-(cyanomethyl)tetrahydrofuran-3-yl]-4-oxo-4,5-dihydro-1H-pyrazolo[4,3-c]pyridin-3-yl}amino)benzonitrile], the half-maximal inhibitory concentration (IC50) in test [1] was determined as 16.7 nM; in test [2], 2.29 nM.
For `CC(C)(C)S(=O)(=O)c1ccc(Nc2nn([C@]3(CC#N)CCCOC3)c3cc[nH]c(=O)c23)cc1` [Example 5-183, [(3S)-3-(3-{[4-(tert-butylsulfonyl)phenyl]amino}-4-oxo-4,5-dihydro-1H-pyrazolo[4,3-c]pyridin-1-yl)tetrahydro-2H-pyran-3-yl]acetonitrile] the same measures were 0.47 nM and 0.17 nM.
For `CC(C)(C)OC(=O)[C@@H]1CC[C@@](CC#N)(n2nc(Nc3ccc4c(c3)CN(C3CCCCC3)C4=O)c3c(=O)[nH]ccc32)CO1` [Example 5-101, (2S,5S)-tert-butyl 5-(cyanomethyl)-5-(3-((2-cyclohexyl-1-oxoisoindolin-5-yl)amino)-4-oxo-4,5-dihydro-1H-pyrazolo[4,3-c]pyridin-1-yl)tetrahydro-2H-pyran-2-carboxylate] the same measures were 0.4 nM and 0.18 nM.
For the compound `N#CC[C@]1(n2nc(Nc3ccc(Cl)cc3)c3c(=O)[nH]ccc32)CC[C@@H](N2CC(F)C2)CC1` [Example 18-7, Cis 2-(1-(3-((4-chlorophenyl)amino)-4-oxo-4,5-dihydro-1H-pyrazolo[4,3-c]pyridin-1-yl)-4-(3-fluoroazetidin-1-yl)cyclohexyl)acetonitrile], the half-inhibitory concentration (IC50) in test [1] came out at 19.8 nM; in test [2], 2.98 nM.
Regarding `CCN1Cc2cc(Nc3nn(C4(CC#N)CCN(C(=O)OC)CC4)c4cc[nH]c(=O)c34)ccc2S1(=O)=O` [Example 5-72, methyl 4-{3-[(2-ethyl-1,1-dioxo-2,3-dihydro-1,2-benzothiazol-5-yl)amino]-4-oxo-1H,4H,5H-pyrazolo [4,3-c]pyridin-1-yl}-4-(cyanomethyl)piperidine-1-carboxylate], the IC50 in test [1] stood at 0.26 nM; in test [2], 0.06 nM.
As to `N#CC[C@]1(n2nc(Nc3ccc(OC(F)(F)F)cc3)c3c(=O)[nH]ccc32)CC[C@H](Nc2ccccc2)CC1` [Example 18-18, Trans 2-(1-(4-oxo-3-((4-(trifluoromethoxy)phenyl)amino)-4,5-dihydro-1H-pyrazolo[4,3-c]pyridin-1-yl)-4-(phenylamino)cyclohexyl)acetonitrile], the IC50 in test [1] is 54.7 nM; in test [2] it was 7.27 nM.
As to `CC(C)S(=N)(=O)c1ccc(Nc2nn([C@]3(CC#N)CCCOC3)c3cc[nH]c(=O)c23)cc1` (single isomer, unassigned) [Example 5-233, 2-((3S)-3-(4-oxo-3-((4-(propan-2-yl-(S or R)-sulfonimidoyl)phenyl)amino)-4,5-dihydro-1H-pyrazolo[4,3-c]pyridin-1-yl)tetrahydro-2H-pyran-3-yl)acetonitrile], the IC50 in test [1] was determined as 0.4 nM; in test [2], 0.36 nM.
For `CC(C)(C)OC(=O)N1CCC(CC#N)(n2nc(Nc3ccc([C@]4(C(F)(F)F)CCCCN4)cc3)c3c(=O)[nH]ccc32)CC1` (single isomer, unassigned) [Example 21-16, (S or R)-tert-butyl 4-(cyanomethyl)-4-(4-oxo-3-(4-(2-(trifluoromethyl)piperidin-2-yl)phenylamino)-4,5-dihydropyrazolo[4,3-c]pyridin-1-yl)piperidine-1-carboxylate] the same measures were 0.64 nM and 0.71 nM.
